Assays:
[1] = Surface tension of water containing nonionic organic compound; type: physicochemical; details: 25° C.; for Surface tension: water containing 0.001% by weight of the nonionic organic compound
From the text: (4) Method of Measuring Surface Tension of Water Containing Nonionic Organic Compound

[2] = Solubility of nonionic organic compound in water; type: physicochemical; details: for solubility in 100 g of water: 25° C.; for Solubility: in 100 g of water at 25° C.
From the text: (3) Method of Measuring Solubility of Nonionic Organic Compound

| Compound | surface tension of water containing 0.001% by weight of the nonionic organic compound [1] [mN/m] | Surface tension [1] [mN/m] | solubility in 100 g of water [2] [g] | Solubility [2] |
| --- | --- | --- | --- | --- |
| CCCCCCCCC(O)CO (stereo not drawn) [1,2-decanediol] | 55 | 55 | 0.055 | 0.055 g/100 g |
| CCCCCCCCCCC(O)CO (stereo not drawn) [1,2-dodecanediol] | 47.1 | 47.1 | 0.001 | 0.001 g/100 g |
| CCCCC(O)CO (stereo not drawn) [1,2-hexanediol, reference compound] | – | 71.2 | – | ≧6 g/100 g |
| CCCCCCC(O)CO (stereo not drawn) [1,2-octanediol] | 65 | 65 | 0.20 | 0.2 g/100 g |

Second part, the compound after the results:

| surface tension of water containing 0.001% by weight of the nonionic organic compound [1] [mN/m] | Surface tension [1] [mN/m] | solubility in 100 g of water [2] [g] | Solubility [2] | Compound |
| --- | --- | --- | --- | --- |
| – | 70.7 | – | 1 g/100 g | OCCCCCCCCO [1,8-octanediol, reference compound] |
| 62 | 62 | 0.15 | 0.15 g/100 g | CCCCC(CC)COCC(O)CO (stereo not drawn) [2-ethylhexyl monoglyceryl ether] |
| 57.8 | 57.8 | 0.05 | 0.05 g/100 g | CC(C)CCCCCCCOCC(O)CO (stereo not drawn) [Isodecyl monoglyceryl ether] |
| 65 | 65 | – | – | Decanoic acid monogriceride |
| 63 | 63 | 0.005 | 0.12 g/100 g | Lauric acid monogriceride |

— patent publication US8013053B2, “Water-based inks for ink-jet printing” (Kao Corporation, priority 2005, dated 2011)
